Tests used:
Adenosine receptor A2a = Adenosine receptor A2a (Homo sapiens, UniProt P29274)
Adenosine receptor A3 = target: T1, Adenosine receptor A3 (Homo sapiens, UniProt P0DMS8)
T1 sequence (P0DMS8 whole entry): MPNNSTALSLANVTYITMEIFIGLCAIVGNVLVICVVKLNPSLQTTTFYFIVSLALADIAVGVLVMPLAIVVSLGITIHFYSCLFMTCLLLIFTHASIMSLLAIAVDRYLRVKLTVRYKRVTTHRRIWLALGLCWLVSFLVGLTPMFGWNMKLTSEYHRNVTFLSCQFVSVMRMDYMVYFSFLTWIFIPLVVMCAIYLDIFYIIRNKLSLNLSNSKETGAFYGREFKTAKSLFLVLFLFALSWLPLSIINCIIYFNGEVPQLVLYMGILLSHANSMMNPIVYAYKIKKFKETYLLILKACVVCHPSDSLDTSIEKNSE

[1] = target: T2, Type-1 angiotensin II receptor (Homo sapiens, UniProt P30556)
T2 sequence (P30556 whole entry): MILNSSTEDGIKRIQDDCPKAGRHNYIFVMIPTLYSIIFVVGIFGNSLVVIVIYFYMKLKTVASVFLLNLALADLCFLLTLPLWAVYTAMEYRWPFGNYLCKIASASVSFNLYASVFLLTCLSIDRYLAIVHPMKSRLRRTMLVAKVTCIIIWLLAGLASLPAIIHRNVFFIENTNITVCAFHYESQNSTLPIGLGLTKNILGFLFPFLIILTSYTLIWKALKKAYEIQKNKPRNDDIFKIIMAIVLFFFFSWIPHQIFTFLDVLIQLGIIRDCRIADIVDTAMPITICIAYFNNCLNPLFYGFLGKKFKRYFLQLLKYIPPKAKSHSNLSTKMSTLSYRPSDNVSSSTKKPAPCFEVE

Melanocortin receptor 3 = Melanocortin receptor 3 (Homo sapiens, UniProt P41968)
Melanocortin receptor 3, sequence (P41968 whole entry): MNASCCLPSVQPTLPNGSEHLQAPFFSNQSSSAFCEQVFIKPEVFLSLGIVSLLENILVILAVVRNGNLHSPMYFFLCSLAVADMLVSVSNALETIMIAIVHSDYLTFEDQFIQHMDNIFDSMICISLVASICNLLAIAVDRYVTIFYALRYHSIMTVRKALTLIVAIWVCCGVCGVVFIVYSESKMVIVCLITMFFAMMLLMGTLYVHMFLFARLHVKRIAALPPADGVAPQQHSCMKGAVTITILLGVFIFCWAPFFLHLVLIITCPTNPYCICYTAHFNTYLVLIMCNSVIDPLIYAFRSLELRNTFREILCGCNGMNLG

Motilin receptor = Motilin receptor (Homo sapiens, UniProt O43193)
Motilin receptor, sequence (O43193 whole entry): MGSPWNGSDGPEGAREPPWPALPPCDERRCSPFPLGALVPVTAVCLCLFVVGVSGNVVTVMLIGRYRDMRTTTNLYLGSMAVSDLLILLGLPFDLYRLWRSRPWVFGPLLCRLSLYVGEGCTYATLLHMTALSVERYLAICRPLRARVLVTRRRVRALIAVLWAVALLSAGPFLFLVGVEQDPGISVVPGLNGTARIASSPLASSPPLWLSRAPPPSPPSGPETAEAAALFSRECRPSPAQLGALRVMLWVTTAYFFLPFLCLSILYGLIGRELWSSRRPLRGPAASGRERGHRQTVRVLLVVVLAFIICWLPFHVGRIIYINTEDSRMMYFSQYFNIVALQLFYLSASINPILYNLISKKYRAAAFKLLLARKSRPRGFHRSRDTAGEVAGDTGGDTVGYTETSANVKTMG

[2] = target: T3, Equilibrative nucleoside transporter 1 (Homo sapiens, UniProt Q99808)
T3 sequence (Q99808 whole entry): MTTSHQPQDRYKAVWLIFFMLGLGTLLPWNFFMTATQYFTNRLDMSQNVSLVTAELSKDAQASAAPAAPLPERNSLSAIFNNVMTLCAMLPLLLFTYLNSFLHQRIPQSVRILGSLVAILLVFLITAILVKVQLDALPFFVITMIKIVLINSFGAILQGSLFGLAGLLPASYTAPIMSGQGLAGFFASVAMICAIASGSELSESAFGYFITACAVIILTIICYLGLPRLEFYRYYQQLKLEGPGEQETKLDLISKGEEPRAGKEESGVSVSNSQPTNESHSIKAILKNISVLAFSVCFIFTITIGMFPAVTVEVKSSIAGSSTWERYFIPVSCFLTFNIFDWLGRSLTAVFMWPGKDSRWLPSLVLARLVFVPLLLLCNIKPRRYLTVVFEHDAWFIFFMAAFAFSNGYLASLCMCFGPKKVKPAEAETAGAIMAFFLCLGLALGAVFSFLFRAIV

[3] = target: T4, Alpha-2A adrenergic receptor (Homo sapiens, UniProt P08913); format: functional, cell-based
T4 sequence (P08913 whole entry): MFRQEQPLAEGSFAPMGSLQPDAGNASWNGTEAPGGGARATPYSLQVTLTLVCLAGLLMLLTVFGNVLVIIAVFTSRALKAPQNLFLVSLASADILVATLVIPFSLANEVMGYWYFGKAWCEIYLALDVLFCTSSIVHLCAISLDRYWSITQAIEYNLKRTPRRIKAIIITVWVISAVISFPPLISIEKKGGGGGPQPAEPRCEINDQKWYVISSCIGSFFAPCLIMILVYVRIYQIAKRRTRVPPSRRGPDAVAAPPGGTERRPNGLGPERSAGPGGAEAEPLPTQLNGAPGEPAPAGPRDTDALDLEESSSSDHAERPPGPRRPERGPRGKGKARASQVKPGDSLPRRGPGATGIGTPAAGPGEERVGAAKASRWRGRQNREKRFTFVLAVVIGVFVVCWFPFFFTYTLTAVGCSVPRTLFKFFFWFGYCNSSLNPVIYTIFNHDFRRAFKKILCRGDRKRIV

D(1A) dopamine receptor = D(1A) dopamine receptor (Homo sapiens, UniProt P21728); format: functional, cell-based
D(1A) dopamine receptor, sequence (P21728 whole entry): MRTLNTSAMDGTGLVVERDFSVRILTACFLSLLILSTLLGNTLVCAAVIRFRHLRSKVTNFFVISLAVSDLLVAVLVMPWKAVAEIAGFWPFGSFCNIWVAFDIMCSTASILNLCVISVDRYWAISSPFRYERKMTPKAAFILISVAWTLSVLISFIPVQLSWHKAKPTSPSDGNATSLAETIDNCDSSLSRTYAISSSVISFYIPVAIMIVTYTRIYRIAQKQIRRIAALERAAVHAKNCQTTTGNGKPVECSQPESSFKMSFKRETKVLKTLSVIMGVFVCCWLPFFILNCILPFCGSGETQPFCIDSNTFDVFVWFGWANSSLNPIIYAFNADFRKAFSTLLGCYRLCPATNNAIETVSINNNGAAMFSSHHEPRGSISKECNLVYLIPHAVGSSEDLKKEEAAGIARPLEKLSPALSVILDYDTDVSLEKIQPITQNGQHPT

[4] = target: Gamma-aminobutyric acid receptor subunit alpha-1 (Rattus norvegicus, UniProt P62813); format: functional
Gamma-aminobutyric acid receptor subunit alpha-1, sequence (P62813 whole entry): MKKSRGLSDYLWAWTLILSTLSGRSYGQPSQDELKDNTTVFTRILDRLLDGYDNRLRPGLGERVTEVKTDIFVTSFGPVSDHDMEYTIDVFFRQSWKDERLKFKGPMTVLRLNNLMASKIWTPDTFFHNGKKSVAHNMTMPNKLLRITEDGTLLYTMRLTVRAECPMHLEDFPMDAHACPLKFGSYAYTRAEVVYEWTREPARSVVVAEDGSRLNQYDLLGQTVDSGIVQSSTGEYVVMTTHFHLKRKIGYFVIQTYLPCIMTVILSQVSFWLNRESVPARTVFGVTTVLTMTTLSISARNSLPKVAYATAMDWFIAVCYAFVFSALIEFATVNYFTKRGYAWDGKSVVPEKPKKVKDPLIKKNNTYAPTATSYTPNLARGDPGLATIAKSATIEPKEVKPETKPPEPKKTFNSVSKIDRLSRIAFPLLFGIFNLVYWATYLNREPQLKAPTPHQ

[5] = target: T5, 5-hydroxytryptamine receptor 1A (Homo sapiens, UniProt P08908); format: functional, cell-based
T5 sequence (P08908 whole entry): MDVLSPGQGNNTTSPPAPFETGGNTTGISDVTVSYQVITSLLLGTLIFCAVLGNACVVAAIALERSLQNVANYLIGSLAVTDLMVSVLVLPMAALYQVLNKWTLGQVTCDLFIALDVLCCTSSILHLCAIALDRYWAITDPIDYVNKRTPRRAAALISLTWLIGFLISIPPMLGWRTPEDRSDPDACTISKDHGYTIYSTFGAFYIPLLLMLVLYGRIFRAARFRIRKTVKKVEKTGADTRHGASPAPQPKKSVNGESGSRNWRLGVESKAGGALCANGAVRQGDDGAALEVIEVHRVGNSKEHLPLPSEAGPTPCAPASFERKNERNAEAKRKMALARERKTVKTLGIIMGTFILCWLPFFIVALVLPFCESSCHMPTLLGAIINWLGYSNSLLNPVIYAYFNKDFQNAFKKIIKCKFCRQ

[6] = target: T6, Amine oxidase [flavin-containing] A (Homo sapiens, UniProt P21397); format: functional
T6 sequence (P21397 whole entry): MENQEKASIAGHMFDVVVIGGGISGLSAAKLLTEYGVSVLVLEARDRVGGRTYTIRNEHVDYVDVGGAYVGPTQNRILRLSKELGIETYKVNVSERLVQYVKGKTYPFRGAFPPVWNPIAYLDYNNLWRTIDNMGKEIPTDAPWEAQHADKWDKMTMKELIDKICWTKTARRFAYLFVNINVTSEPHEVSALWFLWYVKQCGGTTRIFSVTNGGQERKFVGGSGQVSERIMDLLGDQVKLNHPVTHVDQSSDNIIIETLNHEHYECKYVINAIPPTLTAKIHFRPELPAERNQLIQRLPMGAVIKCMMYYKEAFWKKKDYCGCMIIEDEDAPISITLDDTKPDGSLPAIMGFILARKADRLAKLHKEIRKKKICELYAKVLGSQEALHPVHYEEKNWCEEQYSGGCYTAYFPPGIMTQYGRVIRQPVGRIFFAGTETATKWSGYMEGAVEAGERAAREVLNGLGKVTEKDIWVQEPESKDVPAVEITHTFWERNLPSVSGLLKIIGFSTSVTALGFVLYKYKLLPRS
Further: assay procedure not described here.

Adenosine receptor A2a, sequence (P29274 whole entry): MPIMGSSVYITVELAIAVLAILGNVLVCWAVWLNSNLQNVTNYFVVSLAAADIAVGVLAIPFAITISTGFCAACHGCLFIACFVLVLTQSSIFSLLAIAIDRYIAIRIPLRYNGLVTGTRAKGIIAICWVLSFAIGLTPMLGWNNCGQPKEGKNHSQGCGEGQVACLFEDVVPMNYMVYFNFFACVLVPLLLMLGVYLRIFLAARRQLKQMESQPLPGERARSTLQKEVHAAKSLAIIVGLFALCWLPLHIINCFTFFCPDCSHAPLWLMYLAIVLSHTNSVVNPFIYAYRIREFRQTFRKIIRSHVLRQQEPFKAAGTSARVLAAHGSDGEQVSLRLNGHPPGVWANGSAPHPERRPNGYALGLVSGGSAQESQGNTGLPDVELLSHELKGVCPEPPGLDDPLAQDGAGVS

| Structure (SMILES) | AC50 (Adenosine receptor A2a) [µM] | AC50 (Adenosine receptor A3) [µM] | AC50 [1] [µM] | AC50 (Melanocortin receptor 3) [µM] | AC50 (Motilin receptor) [µM] | AC50 [2] [µM] | AC50 [3] [µM] | AC50 (D(1A) dopamine receptor) [µM] | AC50 [4] [µM] | AC50 [5] [µM] | AC50 [6] [µM] |
| --- | --- | --- | --- | --- | --- | --- | --- | --- | --- | --- | --- |
| O=c1[nH]cc(F)c(=O)[nH]1 [FLUOROURACIL] | > 30 | > 30 | > 30 | > 30 | > 30 | > 30 |  |  |  |  |  |
| CS(=O)(=O)Nc1ccc([N+](=O)[O-])cc1Oc1ccccc1 [NIMESULIDE] | 20 |  | 20 | > 30 | 27 | 15 | > 30 | > 30 | > 30 | > 30 | > 30 |
| C[C@@H](O)[C@H]1C(=O)N2C(C(=O)O)=C(SCCN=CN)C[C@H]12 [IMIPENEM ANHYDROUS] | > 300 | 180 | > 300 | > 300 | > 300 | > 300 | > 300 | > 300 |  | > 300 | > 300 |
| CC(C)/N=c1\cc2n(-c3ccc(Cl)cc3)c3ccccc3nc-2cc1Nc1ccc(Cl)cc1 [CLOFAZIMINE] | > 30 | > 30 | > 30 | > 30 | > 30 |  | > 30 | > 30 | 20 | > 30 | > 30 |
| C#CCN(C)Cc1ccccc1 [PARGYLINE] |  |  |  |  |  |  | > 30 | > 30 | > 30 | > 30 |  |
| CC(C)NCC(O)COc1ccc(CC(N)=O)cc1 (stereo unspecified) [ATENOLOL] | > 30 | > 30 | > 30 | > 30 | > 30 | > 30 | > 30 |  |  | > 30 | > 30 |
| CN1CC2c3ccccc3Oc3ccc(Cl)cc3C2C1 (stereo unspecified) [ASENAPINE] | > 30 | > 30 | > 30 | > 30 | > 30 | > 30 | > 30 | > 30 |  | > 10 | > 30 |
| O=C1[C@@H]2[C@H]3CC[C@H](C3)[C@@H]2C(=O)N1C[C@@H]1CCCC[C@H]1CN1CCN(c2nsc3ccccc23)CC1 [LURASIDONE] | > 30 | 9.9 | > 30 | > 30 | > 30 | > 30 |  |  | > 30 |  | > 30 |
| O=C(Cc1cccs1)N[C@@H]1C(=O)N2C(C(=O)[O-])=C(C[n+]3ccccc3)CS[C@H]12 [CEPHALORIDINE] |  |  |  |  |  |  | > 30 | > 30 | > 30 | > 30 | > 30 |
| CN(C)CCCC1(c2ccc(F)cc2)OCc2cc(C#N)ccc21 (stereo unspecified) [CITALOPRAM] | > 30 | > 30 | > 30 | > 30 | > 10 | > 30 | > 10 |  | > 10 | > 10 | > 10 |
| NCCCNCCSP(=O)(O)O [AMIFOSTINE] | > 30 | > 30 | > 30 | > 30 | > 30 |  | > 30 | > 30 | > 30 | > 30 | > 30 |
| CC[N+](CC)(CCNC(=O)C(=O)NCC[N+](CC)(CC)Cc1ccccc1Cl)Cc1ccccc1Cl [AMBENONIUM] | > 30 | > 30 | > 30 | > 30 | > 30 |  | > 30 | > 30 | > 30 | > 30 | > 30 |
| CC(=O)NC[C@H]1CN(c2ccc(N3CCOCC3)c(F)c2)C(=O)O1 [LINEZOLID] | > 30 | > 30 | > 30 | > 30 |  | > 30 | > 30 |  | > 30 | > 30 | > 30 |

Reference: ChEMBL document CHEMBL5291721, “A preclinical secondary pharmacology resource illuminates target-adverse drug reaction associations of marketed drugs” (Nat Commun, 2023)
